Experimental data published in ChEMBL document CHEMBL3351757, “Design and synthesis of novel and highly-active pan-histone deacetylase (pan-HDAC) inhibitors” (Bioorg Med Chem, 2014).

Experiments:
[1] = biological target: Histone deacetylase 1 (Homo sapiens, UniProt Q13547); experiment: Inhibition of human HDAC1 pre-incubated for 30 mins before substrate addition and measured after 30 mins by HDAC-Glo I/II assay
[2] = biological target: Histone deacetylase 2 (Homo sapiens, UniProt Q92769); experiment: Inhibition of human HDAC2 pre-incubated for 30 mins before substrate addition and measured after 30 mins by HDAC-Glo I/II assay
Histone deacetylase 2, sequence (Q92769 whole entry): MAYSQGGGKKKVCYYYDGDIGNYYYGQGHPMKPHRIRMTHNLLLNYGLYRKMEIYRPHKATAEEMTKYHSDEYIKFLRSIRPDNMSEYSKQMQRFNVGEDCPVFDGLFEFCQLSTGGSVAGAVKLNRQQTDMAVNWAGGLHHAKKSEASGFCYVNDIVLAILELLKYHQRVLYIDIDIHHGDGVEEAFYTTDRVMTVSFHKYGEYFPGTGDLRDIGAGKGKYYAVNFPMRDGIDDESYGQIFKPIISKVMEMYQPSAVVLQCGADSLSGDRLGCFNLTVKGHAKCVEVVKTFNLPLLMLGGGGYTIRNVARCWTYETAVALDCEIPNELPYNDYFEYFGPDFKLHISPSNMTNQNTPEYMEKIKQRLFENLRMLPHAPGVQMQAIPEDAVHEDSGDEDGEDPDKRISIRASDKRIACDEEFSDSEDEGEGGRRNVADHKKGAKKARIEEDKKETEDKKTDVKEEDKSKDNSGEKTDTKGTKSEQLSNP

[3] = biological target: Histone deacetylase 3 (Homo sapiens, UniProt O15379); experiment: Inhibition of human HDAC3 pre-incubated for 30 mins before substrate addition and measured after 30 mins by HDAC-Glo I/II assay
Histone deacetylase 3, sequence (O15379 whole entry): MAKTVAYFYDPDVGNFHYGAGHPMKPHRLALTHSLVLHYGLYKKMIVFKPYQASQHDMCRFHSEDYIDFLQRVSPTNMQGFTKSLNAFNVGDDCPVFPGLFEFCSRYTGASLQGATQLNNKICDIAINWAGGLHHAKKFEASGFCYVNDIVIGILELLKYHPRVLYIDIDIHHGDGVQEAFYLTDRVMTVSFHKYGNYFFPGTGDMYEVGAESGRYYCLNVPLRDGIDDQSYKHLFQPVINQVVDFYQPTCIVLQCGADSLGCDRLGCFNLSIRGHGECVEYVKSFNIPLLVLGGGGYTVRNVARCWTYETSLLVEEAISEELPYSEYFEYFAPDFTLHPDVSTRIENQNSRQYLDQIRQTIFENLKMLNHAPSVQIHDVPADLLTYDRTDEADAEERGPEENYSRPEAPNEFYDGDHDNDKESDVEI

[4] = biological target: T1, Histone deacetylase 8 (Homo sapiens, UniProt Q9BY41); experiment: Inhibition of human HDAC8 pre-incubated for 30 mins before substrate addition and measured after 30 mins by HDAC-Glo I/II assay
T1 sequence (Q9BY41 whole entry): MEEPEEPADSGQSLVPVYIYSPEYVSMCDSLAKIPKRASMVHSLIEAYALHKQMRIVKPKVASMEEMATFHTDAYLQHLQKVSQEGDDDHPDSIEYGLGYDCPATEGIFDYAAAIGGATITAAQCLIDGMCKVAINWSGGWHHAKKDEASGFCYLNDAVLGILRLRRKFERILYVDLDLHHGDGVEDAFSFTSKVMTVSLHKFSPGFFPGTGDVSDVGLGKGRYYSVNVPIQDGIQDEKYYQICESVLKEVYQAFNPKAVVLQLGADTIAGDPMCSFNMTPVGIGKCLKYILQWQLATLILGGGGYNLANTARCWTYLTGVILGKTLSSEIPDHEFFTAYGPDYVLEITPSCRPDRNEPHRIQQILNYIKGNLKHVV

[5] = biological target: Histone deacetylase 4 (Homo sapiens, UniProt P56524); experiment: Inhibition of human HDAC4 pre-incubated for 30 mins before substrate addition and measured after 30 mins by HDAC-Glo I/II assay
Histone deacetylase 4, sequence (P56524 whole entry): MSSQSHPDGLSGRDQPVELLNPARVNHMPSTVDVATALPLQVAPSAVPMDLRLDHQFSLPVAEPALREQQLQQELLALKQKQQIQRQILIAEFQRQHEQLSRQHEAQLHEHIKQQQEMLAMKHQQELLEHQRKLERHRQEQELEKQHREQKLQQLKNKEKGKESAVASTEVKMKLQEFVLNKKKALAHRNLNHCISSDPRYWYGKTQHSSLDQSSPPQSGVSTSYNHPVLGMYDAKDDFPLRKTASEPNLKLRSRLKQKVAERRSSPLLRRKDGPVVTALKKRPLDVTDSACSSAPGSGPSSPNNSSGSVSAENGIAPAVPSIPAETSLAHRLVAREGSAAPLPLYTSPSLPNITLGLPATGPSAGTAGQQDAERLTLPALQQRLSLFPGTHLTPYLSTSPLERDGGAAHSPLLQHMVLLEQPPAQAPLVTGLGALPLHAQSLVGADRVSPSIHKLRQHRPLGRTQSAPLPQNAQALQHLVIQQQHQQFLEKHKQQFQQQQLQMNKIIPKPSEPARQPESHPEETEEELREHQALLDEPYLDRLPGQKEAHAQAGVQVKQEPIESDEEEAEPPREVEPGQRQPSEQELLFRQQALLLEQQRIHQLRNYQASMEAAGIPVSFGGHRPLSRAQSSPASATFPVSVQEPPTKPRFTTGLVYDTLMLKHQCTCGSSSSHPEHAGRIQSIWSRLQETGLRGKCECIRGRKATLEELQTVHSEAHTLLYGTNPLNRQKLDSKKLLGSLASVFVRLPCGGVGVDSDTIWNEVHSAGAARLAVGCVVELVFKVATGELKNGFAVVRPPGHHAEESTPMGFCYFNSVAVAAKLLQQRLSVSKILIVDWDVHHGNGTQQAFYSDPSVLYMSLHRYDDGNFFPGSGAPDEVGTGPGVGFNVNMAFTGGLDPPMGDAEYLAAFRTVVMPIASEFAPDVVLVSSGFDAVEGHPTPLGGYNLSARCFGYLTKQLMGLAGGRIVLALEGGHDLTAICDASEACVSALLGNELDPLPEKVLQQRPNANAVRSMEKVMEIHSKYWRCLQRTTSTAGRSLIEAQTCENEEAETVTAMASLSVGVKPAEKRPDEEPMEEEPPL

[6] = biological target: Histone deacetylase 9 (Homo sapiens, UniProt Q9UKV0); experiment: Inhibition of human HDAC9 pre-incubated for 30 mins before substrate addition and measured after 30 mins by HDAC-Glo I/II assay
Histone deacetylase 9, sequence (Q9UKV0 whole entry): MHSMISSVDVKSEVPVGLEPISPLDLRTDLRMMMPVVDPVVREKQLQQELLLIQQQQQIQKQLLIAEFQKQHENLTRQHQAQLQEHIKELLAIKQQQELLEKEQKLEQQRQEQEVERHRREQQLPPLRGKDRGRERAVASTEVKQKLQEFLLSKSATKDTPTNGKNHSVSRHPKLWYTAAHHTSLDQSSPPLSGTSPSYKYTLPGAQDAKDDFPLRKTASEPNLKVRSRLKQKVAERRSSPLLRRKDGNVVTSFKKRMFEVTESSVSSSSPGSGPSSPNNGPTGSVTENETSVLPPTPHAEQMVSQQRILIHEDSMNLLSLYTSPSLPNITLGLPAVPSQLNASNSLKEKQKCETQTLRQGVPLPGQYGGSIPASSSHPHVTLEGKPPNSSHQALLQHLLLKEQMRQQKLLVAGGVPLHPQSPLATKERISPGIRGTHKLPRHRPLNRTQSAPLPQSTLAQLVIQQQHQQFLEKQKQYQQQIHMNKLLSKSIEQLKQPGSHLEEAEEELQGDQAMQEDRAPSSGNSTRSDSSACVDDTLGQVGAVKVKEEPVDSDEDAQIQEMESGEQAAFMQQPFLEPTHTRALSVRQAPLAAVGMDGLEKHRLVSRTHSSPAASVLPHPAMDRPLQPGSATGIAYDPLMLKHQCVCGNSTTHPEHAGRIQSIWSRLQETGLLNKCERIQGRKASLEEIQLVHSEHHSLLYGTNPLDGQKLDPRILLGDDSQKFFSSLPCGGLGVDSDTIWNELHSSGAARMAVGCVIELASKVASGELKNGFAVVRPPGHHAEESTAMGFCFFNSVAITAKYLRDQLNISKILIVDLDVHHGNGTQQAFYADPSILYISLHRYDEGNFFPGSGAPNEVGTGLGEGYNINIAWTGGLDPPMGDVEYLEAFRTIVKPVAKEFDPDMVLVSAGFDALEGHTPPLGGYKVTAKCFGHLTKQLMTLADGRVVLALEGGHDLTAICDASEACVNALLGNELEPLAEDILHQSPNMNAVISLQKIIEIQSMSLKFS

[7] = biological target: T2, Protein deacetylase HDAC6 (Homo sapiens, UniProt Q9UBN7); experiment: Inhibition of human HDAC6 pre-incubated for 30 mins before substrate addition and measured after 30 mins by HDAC-Glo I/II assay
T2 sequence (Q9UBN7 whole entry): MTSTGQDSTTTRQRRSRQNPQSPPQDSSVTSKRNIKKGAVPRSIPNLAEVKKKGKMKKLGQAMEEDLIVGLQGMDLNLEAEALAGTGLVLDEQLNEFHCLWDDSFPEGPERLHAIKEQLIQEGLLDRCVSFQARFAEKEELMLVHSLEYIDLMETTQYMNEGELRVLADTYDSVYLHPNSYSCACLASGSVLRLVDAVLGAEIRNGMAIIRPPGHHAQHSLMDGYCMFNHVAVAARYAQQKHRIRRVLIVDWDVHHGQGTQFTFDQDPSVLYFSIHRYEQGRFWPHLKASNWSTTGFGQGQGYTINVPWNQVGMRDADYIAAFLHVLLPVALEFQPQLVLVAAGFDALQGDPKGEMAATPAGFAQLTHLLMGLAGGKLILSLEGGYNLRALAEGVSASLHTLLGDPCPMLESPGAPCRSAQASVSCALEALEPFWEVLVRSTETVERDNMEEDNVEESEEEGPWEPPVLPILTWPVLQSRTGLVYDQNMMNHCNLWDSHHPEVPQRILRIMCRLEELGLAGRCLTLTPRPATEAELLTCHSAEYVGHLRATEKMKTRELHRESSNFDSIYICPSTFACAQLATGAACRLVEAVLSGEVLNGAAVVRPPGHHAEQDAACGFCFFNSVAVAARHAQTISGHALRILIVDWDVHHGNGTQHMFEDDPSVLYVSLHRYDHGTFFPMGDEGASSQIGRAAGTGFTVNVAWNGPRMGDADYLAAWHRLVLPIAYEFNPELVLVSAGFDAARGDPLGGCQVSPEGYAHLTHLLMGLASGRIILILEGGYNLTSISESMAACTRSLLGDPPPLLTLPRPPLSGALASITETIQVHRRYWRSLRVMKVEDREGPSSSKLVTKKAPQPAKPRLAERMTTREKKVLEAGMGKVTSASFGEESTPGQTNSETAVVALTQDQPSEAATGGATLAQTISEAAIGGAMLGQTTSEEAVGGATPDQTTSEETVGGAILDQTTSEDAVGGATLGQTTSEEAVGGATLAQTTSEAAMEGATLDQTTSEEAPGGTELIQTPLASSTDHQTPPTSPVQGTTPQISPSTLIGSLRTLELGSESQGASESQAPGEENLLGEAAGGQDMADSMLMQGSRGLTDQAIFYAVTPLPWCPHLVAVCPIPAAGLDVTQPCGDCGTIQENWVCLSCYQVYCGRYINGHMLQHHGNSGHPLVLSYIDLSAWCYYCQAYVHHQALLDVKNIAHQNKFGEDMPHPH

[8] = biological target: T3, Histone deacetylase (Rattus norvegicus) (UniProt Q6P6W3+Q99P99+Q99P96+Q4QQW4+Q99P97+Q5RJZ2+B1WBY8); conditions: at 10 µM
Description: Inhibition of rat liver HDAC at 10 uM pre-incubated for 15 mins before Boc-Lys(Ac)-AMC substrate addition and measured after 30 mins by fluorometry

[9] = biological target: T3, Histone deacetylase (Rattus norvegicus); conditions: at 0.1 µM
Description: Inhibition of rat liver HDAC at 0.1 uM pre-incubated for 15 mins before Boc-Lys(Ac)-AMC substrate addition and measured after 30 mins by fluorometry

Histone deacetylase 1, sequence (Q13547 whole entry): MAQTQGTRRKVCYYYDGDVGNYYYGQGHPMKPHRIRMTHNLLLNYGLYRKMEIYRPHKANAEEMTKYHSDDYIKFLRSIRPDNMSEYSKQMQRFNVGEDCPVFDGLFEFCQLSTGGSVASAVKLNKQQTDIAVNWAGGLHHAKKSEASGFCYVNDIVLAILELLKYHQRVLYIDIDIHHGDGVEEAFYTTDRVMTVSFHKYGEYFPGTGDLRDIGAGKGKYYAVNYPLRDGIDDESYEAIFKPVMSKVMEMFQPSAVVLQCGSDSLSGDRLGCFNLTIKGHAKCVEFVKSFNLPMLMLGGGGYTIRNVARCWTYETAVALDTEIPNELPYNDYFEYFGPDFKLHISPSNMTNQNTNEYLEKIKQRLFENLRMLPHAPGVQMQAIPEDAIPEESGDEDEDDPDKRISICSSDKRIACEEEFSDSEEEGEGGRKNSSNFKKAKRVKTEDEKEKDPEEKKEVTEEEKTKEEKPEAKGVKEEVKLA

With `Cn1c(=O)ccc2cc(C(=O)NCCCCCCC(=O)NO)ccc21` the IC50 [1] was 0.089 µM, the IC50 [2] was 0.09 µM and the IC50 [3] was 0.098 µM. It also gave an IC50 [4] of 0.072 µM, an IC50 [5] of 0.086 µM and an IC50 [6] of 0.041 µM. For the same compound, the IC50 [7] was 0.086 µM, the inhibition [8] was 99% and the inhibition [9] was 63%.
Compound `CC1(C)CC(=O)Nc2ccc(C(=O)NC[C@H]3CC[C@H](CCC(=O)NO)CC3)cc21` has an IC50 [1] of 0.035 µM, an IC50 [2] of 0.035 µM and an IC50 [3] of 0.089 µM. It also gave an IC50 [4] of 0.028 µM, an IC50 [5] of 0.22 µM and an IC50 [6] of 0.057 µM. It also gave an IC50 [7] of 0.44 µM, an inhibition [8] of 99% and an inhibition [9] of 43%.
Compound `CN1C(=O)CC(C)(C)c2cc(C(=O)NCCCCCCC(=O)NO)ccc21` has an IC50 [1] of 0.043 µM, an IC50 [2] of 0.1 µM and an IC50 [3] of 0.028 µM. It also gave an IC50 [4] of 0.059 µM, an IC50 [5] of 0.28 µM and an IC50 [6] of 0.12 µM. For the same compound, the IC50 [7] was 0.13 µM, the inhibition [8] was 99% and the inhibition [9] was 50%.
